Reference: PubChem BioAssay AID2060903 (Molecular Pharmacology Branch, DTP, NCI, 2025)

Tested on: 377384-186-R-J1-PDC complex spheroid viability
Experiment: Anticancer human tumor 377384-186-R-J1-PDC patient-derived pancreatic carcinoma cell line growth inhibition [RAS]
Details: for IC50: curve of first compound; for viability, T/C: stronger effect = lower value
Outline: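 Multi-cell-type spheroids: tumor cells plus HUVEC endothelial cells and mesenchymal stem cells. RAS-pathway inhibitors were combined with targeted agents, each dosed in half-log steps down from clinical Cmax, or from 10 microM when Cmax was unknown.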
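Further: spheroids exposed to compounds for seven days before readout.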

## C=CC(=O)N1CCN(c2nc(OCC3CCCN3C)nc3c(F)c(-c4nc(N)cc(C)c4C(F)(F)F)c(Cl)cc23)C(C)C1 (centres undefined) + CCn1c(-c2cccnc2C(C)OC)c2c3cc(ccc31)N1CCOC(CC(NC(=O)C(C(C)C)N(C)C(=O)C3(F)CCN(C(=O)C#CC(C)(C)N(C)C)CC3)C(=O)N3CCCC(N3)C(=O)OCC(C)(C)C2)C1
Second compound 0.000949 µM
  IC50: > 1000 nM
Second compound 0.003 µM
  IC50: > 1000 nM
Second compound 0.00949 µM
  IC50: > 1000 nM
Second compound 0.03 µM
  IC50: > 1000 nM
Second compound 0.0949 µM
  IC50: > 1000 nM
Second compound 0.3 µM
  IC50: > 1000 nM
Second compound 0.000949 µM, first compound 0.00316 µM
  viability, T/C: 107%
Second compound 0.000949 µM, first compound 0.01 µM
  viability, T/C: 108%
Second compound 0.000949 µM, first compound 0.0316 µM
  viability, T/C: 117%
Second compound 0.000949 µM, first compound 0.1 µM
  viability, T/C: 103%
Second compound 0.000949 µM, first compound 0.316 µM
  viability, T/C: 110%
Second compound 0.000949 µM, first compound 1 µM
  viability, T/C: 89.9%
Second compound 0.003 µM, first compound 0.00316 µM
  viability, T/C: 104%
Second compound 0.003 µM, first compound 0.01 µM
  viability, T/C: 96.4%
Second compound 0.003 µM, first compound 0.0316 µM
  viability, T/C: 103%
Second compound 0.003 µM, first compound 0.1 µM
  viability, T/C: 114%
Second compound 0.003 µM, first compound 0.316 µM
  viability, T/C: 104%
Second compound 0.003 µM, first compound 1 µM
  viability, T/C: 93.3%
Second compound 0.00949 µM, first compound 0.00316 µM
  viability, T/C: 113%
Second compound 0.00949 µM, first compound 0.01 µM
  viability, T/C: 97.7%
Second compound 0.00949 µM, first compound 0.0316 µM
  viability, T/C: 120%
Second compound 0.00949 µM, first compound 0.1 µM
  viability, T/C: 117%
Second compound 0.00949 µM, first compound 0.316 µM
  viability, T/C: 104%
Second compound 0.00949 µM, first compound 1 µM
  viability, T/C: 99.2%
Second compound 0.03 µM, first compound 0.00316 µM
  viability, T/C: 104%
Second compound 0.03 µM, first compound 0.01 µM
  viability, T/C: 96.7%
Second compound 0.03 µM, first compound 0.0316 µM
  viability, T/C: 99.7%
Second compound 0.03 µM, first compound 0.1 µM
  viability, T/C: 92.5%
Second compound 0.03 µM, first compound 0.316 µM
  viability, T/C: 99%
Second compound 0.03 µM, first compound 1 µM
  viability, T/C: 106%
Second compound 0.0949 µM, first compound 0.00316 µM
  viability, T/C: 93.3%
Second compound 0.0949 µM, first compound 0.01 µM
  viability, T/C: 91.3%
Second compound 0.0949 µM, first compound 0.0316 µM
  viability, T/C: 94.8%
Second compound 0.0949 µM, first compound 0.1 µM
  viability, T/C: 103%
Second compound 0.0949 µM, first compound 0.316 µM
  viability, T/C: 101%
Second compound 0.0949 µM, first compound 1 µM
  viability, T/C: 93.4%
Second compound 0.3 µM, first compound 0.00316 µM
  viability, T/C: 86.1%
Second compound 0.3 µM, first compound 0.01 µM
  viability, T/C: 86.3%
Second compound 0.3 µM, first compound 0.0316 µM
  viability, T/C: 96.8%
Second compound 0.3 µM, first compound 0.1 µM
  viability, T/C: 88.1%
Second compound 0.3 µM, first compound 0.316 µM
  viability, T/C: 96%
Second compound 0.3 µM, first compound 1 µM
  viability, T/C: 94.8%

## CC1(C)CCC(Nc2ncc(C(F)(F)F)c(-c3c[nH]c4c(P(C)(C)=O)c(C#N)ccc34)n2)CN1 (centres undefined) + CCn1c(-c2cccnc2C(C)OC)c2c3cc(ccc31)N1CCOC(CC(NC(=O)C(C(C)C)N(C)C(=O)C3(F)CCN(C(=O)C#CC(C)(C)N(C)C)CC3)C(=O)N3CCCC(N3)C(=O)OCC(C)(C)C2)C1
Second compound 0.000949 µM
  IC50: 6.49 nM
Second compound 0.003 µM
  IC50: 6.94 nM
Second compound 0.00949 µM
  IC50: 6.25 nM
Second compound 0.03 µM
  IC50: 6.09 nM
Second compound 0.0949 µM
  IC50: 4.39 nM
Second compound 0.3 µM
  IC50: 4.25 nM
Second compound 0.000949 µM, first compound 0.000949 µM
  viability, T/C: 96%
Second compound 0.000949 µM, first compound 0.003 µM
  viability, T/C: 75.9%
Second compound 0.000949 µM, first compound 0.00949 µM
  viability, T/C: 36.1%
Second compound 0.000949 µM, first compound 0.03 µM
  viability, T/C: 30.8%
Second compound 0.000949 µM, first compound 0.0949 µM
  viability, T/C: 22.1%
Second compound 0.000949 µM, first compound 0.3 µM
  viability, T/C: 22.8%
Second compound 0.003 µM, first compound 0.000949 µM
  viability, T/C: 92.7%
Second compound 0.003 µM, first compound 0.003 µM
  viability, T/C: 82.8%
Second compound 0.003 µM, first compound 0.00949 µM
  viability, T/C: 37.5%
Second compound 0.003 µM, first compound 0.03 µM
  viability, T/C: 25.2%
Second compound 0.003 µM, first compound 0.0949 µM
  viability, T/C: 22.9%
Second compound 0.003 µM, first compound 0.3 µM
  viability, T/C: 20.3%
Second compound 0.00949 µM, first compound 0.000949 µM
  viability, T/C: 96.6%
Second compound 0.00949 µM, first compound 0.003 µM
  viability, T/C: 71.8%
Second compound 0.00949 µM, first compound 0.00949 µM
  viability, T/C: 37.8%
Second compound 0.00949 µM, first compound 0.03 µM
  viability, T/C: 23.5%
Second compound 0.00949 µM, first compound 0.0949 µM
  viability, T/C: 21.9%
Second compound 0.00949 µM, first compound 0.3 µM
  viability, T/C: 20.6%
Second compound 0.03 µM, first compound 0.000949 µM
  viability, T/C: 85.2%
Second compound 0.03 µM, first compound 0.003 µM
  viability, T/C: 73.4%
Second compound 0.03 µM, first compound 0.00949 µM
  viability, T/C: 35.3%
Second compound 0.03 µM, first compound 0.03 µM
  viability, T/C: 19.5%
Second compound 0.03 µM, first compound 0.0949 µM
  viability, T/C: 19.3%
Second compound 0.03 µM, first compound 0.3 µM
  viability, T/C: 16.3%
Second compound 0.0949 µM, first compound 0.000949 µM
  viability, T/C: 88.5%
Second compound 0.0949 µM, first compound 0.003 µM
  viability, T/C: 61.7%
Second compound 0.0949 µM, first compound 0.00949 µM
  viability, T/C: 26.1%
Second compound 0.0949 µM, first compound 0.03 µM
  viability, T/C: 19.4%
Second compound 0.0949 µM, first compound 0.0949 µM
  viability, T/C: 16.6%
Second compound 0.0949 µM, first compound 0.3 µM
  viability, T/C: 14.8%
Second compound 0.3 µM, first compound 0.000949 µM
  viability, T/C: 85.2%
Second compound 0.3 µM, first compound 0.003 µM
  viability, T/C: 61.6%
Second compound 0.3 µM, first compound 0.00949 µM
  viability, T/C: 23%
Second compound 0.3 µM, first compound 0.03 µM
  viability, T/C: 18.1%
Second compound 0.3 µM, first compound 0.0949 µM
  viability, T/C: 15.7%
Second compound 0.3 µM, first compound 0.3 µM
  viability, T/C: 13.4%
